Measurements as given in patent US9874558B2, “Immunoassay method less affected by impurities” (Konica Minolta, Inc., priority 2012, dated 2018).

Tests used:
[1] = molecular target: T1, Wisteria floribunda lectin (WFA) (Wisteria floribunda, UniProt A0A218PFP3); assay: SPFS sandwich immunoassay of PSA with labeled WFA, added competing sugar chain compound, S/N ratio; settings: PSA in commercially available serum, sugar chain compound 0.1% by weight in PBS for 10 minutes, none: S/N 2
T1 sequence (A0A218PFP3 31-273): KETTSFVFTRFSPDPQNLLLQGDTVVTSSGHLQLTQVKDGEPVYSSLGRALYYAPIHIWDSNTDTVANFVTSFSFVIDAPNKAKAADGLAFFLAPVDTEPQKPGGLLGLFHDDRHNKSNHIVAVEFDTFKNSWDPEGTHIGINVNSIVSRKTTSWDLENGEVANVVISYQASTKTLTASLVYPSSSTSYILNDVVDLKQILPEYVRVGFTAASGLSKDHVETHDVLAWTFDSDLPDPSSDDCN
Description: Antigen Addition Step: To one of the thus prepared sensor chip, 0.5 mL of a solution having a PSA concentration of 1.0 ng/mL, which was prepared by diluting the LNCaP culture supernatant with a commercially available serum (manufactured by Kohjin Bio Co., Ltd.), was added and circulated for 25 minutes in place of PBS. To the other sensor chip, a commercially available serum (manufactured by Kohjin Bio Co., Ltd.) containing no LNCaP culture supernatant was added and circulated for 25 minutes.
Washing Step: Each sensor chip was washed by circulating TBS containing 0.05% by weight of Tween 20 as a transfer liquid. Here, using a laser light source, the metal thin films of the sensor chip were irradiated with laser light having a wavelength of 635 nm, whose photon amount was adjusted by an optical filter (manufactured by Sigmakoki Co., Ltd.), through a prism (“S-LAL 10” manufactured by Ohara Inc. (refractive index [n]=1.72)), and the blank fluorescence was detected using a CCD image sensor (manufactured by Texas Instruments Inc.) equipped with a cut filter for cutting light having wavelengths of non-fluorescent components and an objective lens (×20). […]
Further, also for each of the following cases, the same experiment as described above was carried out and the S/N ratio was determined: […]

[2] = molecular target: T2, Lens culinaris lectin (LCA) (Lens culinaris, UniProt P02870); assay: Dissociation constant (Kd) with labeled LCA lectin; assay type: binding; settings: between sugar chain compound to be added and labeled lectin LCA; target compound AFP; read-out: Dissociation constant (Kd) x
T2 sequence (P02870 31-211 limits assumed): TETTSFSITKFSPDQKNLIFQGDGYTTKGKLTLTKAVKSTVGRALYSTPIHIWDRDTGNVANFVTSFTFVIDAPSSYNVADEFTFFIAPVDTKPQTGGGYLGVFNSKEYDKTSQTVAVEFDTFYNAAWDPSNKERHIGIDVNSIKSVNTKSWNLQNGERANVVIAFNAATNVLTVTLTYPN
T2 sequence (P02870 218-269 limits assumed): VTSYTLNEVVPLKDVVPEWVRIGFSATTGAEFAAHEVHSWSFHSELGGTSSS
Description: In the present invention, the dissociation constant is defined as follows.
The binding between a sugar chain compound (A) and a lectin (B) occurs through a reversible reaction, and the following formula is established in an equilibrium state (wherein, [A] represents the concentration of the sugar chain compound (mol/L); [B] represents the concentration of the lectin (mol/L); and [A−B] represents the concentration of conjugates formed between the sugar chain compound and the lectin (mol/L)). [A−B]⇄[A]+[B]
In this case, the dissociation constant, Kd, between the sugar chain compound (A) and the lectin (B) is represented by the following equation: Kd=[A]×[B]/[A−B]

[3] = molecular target: T2, Lens culinaris lectin (LCA); assay: SPFS sandwich immunoassay of AFP with labeled LCA, added competing sugar chain compound, S/N ratio; settings: AFP 3.0 ng/mL in commercially available serum, sugar chain compound 0.1% by weight in PBS for 10 minutes, none: S/N 2

CC(C)CCCC(C)C1CCC2C3CC=C4CC(OC(=O)NCCOC5OC(C)[C@@H](O)C(O)[C@H]5O)CC[C@]4(C)C3CC[C@]12C (stereo partly drawn) [Fuc-2-Chol]
S/N [1]: 3

CC(C)CCCC(C)C1CCC2C3CC=C4CC(OC(=O)NCCOC5OC(CO)[C@H](O)C(O)[C@@H]5O)CC[C@]4(C)C3CC[C@]12C (stereo partly drawn) [Man-2-Chol]
Kd [2]: 220 µM | S/N [3]: 3
